Reference: patent publication US11279691B2, “Substituted pyridine and pyrazine compounds as PDE4 inhibitors” (Dart Neuroscience LLC, priority 2013, dated 2022)

Molecular target: T1, PDE4D3 (Homo sapiens, UniProt Q08499)
T1 construct: GST
Assay type: biochemical
Conditions: GST-tagged PDE4D3, 200 nM FAM-cAMP, 11-point dose-response; read-out: PD4d3 pEC50 (converted)

T1 sequence (Q08499 1-673 isoform Q08499-2): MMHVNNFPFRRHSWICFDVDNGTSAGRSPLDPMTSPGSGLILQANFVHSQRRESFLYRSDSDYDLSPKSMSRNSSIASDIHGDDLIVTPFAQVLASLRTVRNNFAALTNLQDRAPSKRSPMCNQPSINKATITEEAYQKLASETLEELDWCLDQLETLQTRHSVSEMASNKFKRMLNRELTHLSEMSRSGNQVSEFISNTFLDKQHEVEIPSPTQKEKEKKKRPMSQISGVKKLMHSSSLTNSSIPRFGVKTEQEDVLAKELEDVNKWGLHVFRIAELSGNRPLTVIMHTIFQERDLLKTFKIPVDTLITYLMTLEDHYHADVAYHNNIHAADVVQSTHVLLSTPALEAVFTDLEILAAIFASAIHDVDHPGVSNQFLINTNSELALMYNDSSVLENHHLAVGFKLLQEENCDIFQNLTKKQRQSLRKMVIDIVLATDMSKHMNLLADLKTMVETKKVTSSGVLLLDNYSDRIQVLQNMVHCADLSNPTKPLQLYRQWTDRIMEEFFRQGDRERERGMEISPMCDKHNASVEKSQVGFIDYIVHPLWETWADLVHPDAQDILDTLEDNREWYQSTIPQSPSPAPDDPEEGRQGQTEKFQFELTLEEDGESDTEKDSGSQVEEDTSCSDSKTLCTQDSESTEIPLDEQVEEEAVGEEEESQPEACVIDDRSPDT

SMILES | EC50 [nM]
COc1ncc(Cc2cnc(N)nc2)cc1-c1ccnc(C#N)c1 [Example 347, 4-{5-[(2-Aminopyrimidin-5-yl)methyl]-2-methoxypyridin-3-yl}pyridine-2-carbonitrile] | 100 to 1000
COc1ncc(Cc2cnc(C(C)(C)C(N)=O)nc2)cc1-c1cccc(Cl)c1 [Example 367, 2-(5-{[5-(3-Chlorophenyl)-6-methoxypyridin-3-yl]methyl}pyrimidin-2-yl)-2-methylpropanamide] | 100 to 1000
COc1cc(-c2cc(Cc3cnc(N)nc3)cnc2OC)ccc1F [Example 354, 5-{[5-(4-Fluoro-3-methoxyphenyl)-6-methoxypyridin-3-yl]methyl}pyrimidin-2-amine] | 100 to 1000
COc1cc(-c2cc(Cn3cc(CO)nc3C)cnc2OC)ccc1F [Example 343, (1-{[5-(4-Fluoro-3-methoxyphenyl)-6-methoxypyridin-3-yl]methyl}-2-methyl-1H-imidazol-4-yl)methanol] | 1000 to 10000
CCOc1ncc(Cn2nnc(C)n2)cc1-c1ccc(F)c(F)c1 [Example 393, 3-(3,4-Difluorophenyl)-2-ethoxy-5-[(5-methyl-2H-1,2,3,4-tetrazol-2-yl)methyl]pyridine] | < 100
COc1ncc(Cc2cnc(CC(N)=O)nc2)cc1-c1cccc(Cl)c1 [Example 369, 2-(5-{[5-(3-Chlorophenyl)-6-methoxypyridin-3-yl]methyl}pyrimidin-2-yl)acetamide] | < 100
COc1ncc(Cn2cc(C(F)F)nc2C)cc1-c1ccnc(OC(F)F)c1 [Example 297, 2′-(Difluoromethoxy)-5-((4-(difluoromethyl)-2-methyl-1H-imidazol-1-yl)methyl)-2-methoxy-3,4′-bipyridine] | 100 to 1000
COc1ncc(Cc2cnc(CC(N)=O)nc2)cc1-c1ccc(F)c(F)c1 [Example 368, 2-(5-{[5-(3,4-Difluorophenyl)-6-methoxypyridin-3-yl]methyl}pyrimidin-2-yl)acetamide] | < 100
COc1ncc(Cc2cnc(N)c(F)c2)cc1-c1ccnc(OC(F)F)c1 [Example 301, 5-((2′-(Difluoromethoxy)-2-methoxy-[3,4′-bipyridin]-5-yl)methyl)-3-fluoropyridin-2-amine] | < 100
COc1ncc(Cc2cnc(O)nc2)cc1-c1cccc(Cl)c1 [Example 302, 5-((5-(3-Chlorophenyl)-6-methoxypyridin-3-yl)methyl)pyrimidin-2-ol] | 1000 to 10000
COc1ncc(Cn2cc(CO)nc2C)nc1-c1cccc(Cl)c1 [Example 322, (1-{[6-(3-Chlorophenyl)-5-methoxypyrazin-2-yl]methyl}-2-methyl-1H-imidazol-4-yl)methanol] | 100 to 1000
COc1ncc(Cc2cnc(N)nc2)cc1-c1cccc(C#N)c1 [Example 356, 3-{5-[(2-Aminopyrimidin-5-yl)methyl]-2-methoxypyridin-3-yl}benzonitrile] | 100 to 1000
COc1ncc(Cc2ccc(CC(N)=O)cc2)cc1-c1cccc(Cl)c1 [Example 280, 2-(4-((5-(3-Chlorophenyl)-6-methoxypyridin-3-yl)methyl)phenyl)acetamide] | < 100
COc1ncc(Cn2nnnc2CO)cc1-c1ccc(F)c(F)c1 [Example 384, (1-{[5-(3,4-Difluorophenyl)-6-methoxypyridin-3-yl]methyl}-1H-1,2,3,4-tetrazol-5-yl)methanol] | 1000 to 10000
COc1ncc(Cc2cnc(OCCO)nc2)cc1-c1cccc(Cl)c1 [Example 303, 2-((5-((5-(3-Chlorophenyl)-6-methoxypyridin-3-yl)methyl)pyrimidin-2-yl)oxy)ethanol] | < 100
CCOc1ncc(Cn2cnc(C(F)(F)F)n2)cc1-c1cccc(OC(F)F)c1 [Example 162, 3-[3-(Difluoromethoxy)phenyl]-2-ethoxy-5-{[3-(trifluoromethyl)-1H-1,2,4-triazol-1-yl]methyl}pyridine] | 100 to 1000
COc1ncc(Cn2nnnc2CO)cc1-c1ccc(Cl)c(F)c1 [Example 386, (1-{[5-(4-Chloro-3-fluorophenyl)-6-methoxypyridin-3-yl]methyl}-1H-1,2,3,4-tetrazol-5-yl)methanol] | 1000 to 10000
CCOc1ncc(Cn2nnnc2C)cc1-c1ccc(F)c(F)c1 [Example 395, 3-(3,4-Difluorophenyl)-2-ethoxy-5-[(5-methyl-1H-1,2,3,4-tetrazol-1-yl)methyl]pyridine] | < 100
COc1ncc(Cn2cc(CO)nc2C)cc1-c1ccnc(OC(F)F)c1 [Example 315, [1-({5-[2-(Difluoromethoxy)pyridin-4-yl]-6-methoxypyridin-3-yl}methyl)-2-methyl-1H-imidazol-4-yl]methanol] | 100 to 1000
CCOc1ncc(Cn2cnc(CO)n2)cc1-c1ccc(Cl)cc1 [Example 328, (1-{[5-(4-Chlorophenyl)-6-ethoxypyridin-3-yl]methyl}-1H-1,2,4-triazol-3-yl)methanol] | 100 to 1000
CCOc1ncc(Cn2nnnc2C)cc1-c1ccc(Cl)c(F)c1 [Example 397, 3-(4-Chloro-3-fluorophenyl)-2-ethoxy-5-[(5-methyl-1H-1,2,3,4-tetrazol-1-yl)methyl]pyridine] | 100 to 1000
CCOc1ncc(Cn2cc(CO)nc2C)nc1-c1cccc(Cl)c1 [Example 324, (1-{[6-(3-Chlorophenyl)-5-ethoxypyrazin-2-yl]methyl}-2-methyl-1H-imidazol-4-yl)methanol] | 100 to 1000

SMILES | EC50 [nM]
CCOc1ncc(Cn2cc(CO)cn2)cc1-c1cccc(Cl)c1 [Example 273, (1-{[5-(3-Chlorophenyl)-6-ethoxypyridin-3-yl]methyl}-1H-pyrazol-4-yl)methanol] | 100 to 1000
COc1ncc(Cn2cc(CO)nc2C)cc1-c1ccc(F)c(F)c1 [Example 345, (1-{[5-(3,4-Difluorophenyl)-6-methoxypyridin-3-yl]methyl}-2-methyl-1H-imidazol-4-yl)methanol] | 100 to 1000
COc1ncc(Cc2cnc(NCCO)nc2)cc1-c1ccc(F)cc1 [Example 283, 2-[(5-{[5-(4-Fluorophenyl)-6-methoxypyridin-3-yl]methyl}pyrimidin-2-yl)amino]ethan-1-ol] | 100 to 1000
CCCOc1ncc(Cc2cnc(N)nc2)cc1-c1ccc(F)c(F)c1 [Example 278, 5-((5-(3,4-Difluorophenyl)-6-propoxypyridin-3-yl)methyl)pyrimidin-2-amine] | < 100
CCOc1ncc(Cn2nc(N)cc2C)cc1-c1cccc(Cl)c1 [Example 317, 1-{[5-(3-Chlorophenyl)-6-ethoxypyridin-3-yl]methyl}-5-methyl-1H-pyrazol-3-amine] | 100 to 1000
COc1ncc(Cc2cnc(N3CCC(O)C3)nc2)cc1-c1cccc(Cl)c1 (stereo not shown) [Example 389, 1-(5-{[5-(3-Chlorophenyl)-6-methoxypyridin-3-yl]methyl}pyrimidin-2-yl)pyrrolidin-3-ol] | 100 to 1000
COc1ncc(Cn2ccc(C(N)=O)n2)cc1-c1ccnc(C#N)c1 [Example 307, 1-{[5-(2-Cyanopyridin-4-yl)-6-methoxypyridin-3-yl]methyl}-1H-pyrazole-3-carboxamide] | 1000 to 10000
CCOc1ncc(Cc2cnc(N)nc2)cc1-c1ccc(F)c(C)c1 [Example 352, 5-{[6-Ethoxy-5-(4-fluoro-3-methylphenyl)pyridin-3-yl]methyl}pyrimidin-2-amine] | < 100
COc1ncc(Cn2nnc(CO)n2)cc1-c1cccc(Cl)c1 [Example 388, (2-{[5-(3-Chlorophenyl)-6-methoxypyridin-3-yl]methyl}-2H-1,2,3,4-tetrazol-5-yl)methanol] | 100 to 1000
COc1ncc(Cc2cnc(N)cn2)cc1-c1ccc(F)c(Cl)c1 [Example 288, 5-((5-(3-Chloro-4-fluorophenyl)-6-methoxypyridin-3-yl)methyl)pyrazin-2-amine] | < 100
CCOc1cc(-c2cc(Cc3cnc(N)nc3)cnc2OC)ccc1F [Example 355, 5-{[5-(3-Ethoxy-4-fluorophenyl)-6-methoxypyridin-3-yl]methyl}pyrimidin-2-amine] | 100 to 1000
CCOc1cnc(Cc2cnc(OC)c(-c3cccc(Cl)c3)c2)cn1 [Example 289, 2-((5-(3-Chlorophenyl)-6-methoxypyridin-3-yl)methyl)-5-ethoxypyrazine] | 100 to 1000
COc1ncc(Cc2cnc(C#N)nc2)nc1-c1cccc(OC(F)F)c1 [Example 107, 5-({6-[3-(Difluoromethoxy)phenyl]-5-methoxypyrazin-2-yl}methyl)pyrimidine-2-carbonitrile] | 100 to 1000
Cc1nc(CO)cn1Cc1cnc(OC(F)F)c(-c2cccc(Cl)c2)c1 [Example 321, (1-{[5-(3-Chlorophenyl)-6-(difluoromethoxy)pyridin-3-yl]methyl}-2-methyl-1H-imidazol-4-yl)methanol] | 100 to 1000
CCOc1cc(-c2cc(Cc3cnc(N)nc3)cnc2OC)ccn1 [Example 349, 5-{[5-(2-Ethoxypyridin-4-yl)-6-methoxypyridin-3-yl]methyl}pyrimidin-2-amine] | < 100
COc1ncc(Cc2cnc(OCC(N)=O)nc2)cc1-c1cccc(Cl)c1 [Example 298, 2-((5-((5-(3-Chlorophenyl)-6-methoxypyridin-3-yl)methyl)pyrimidin-2-yl)oxy)acetamide] | < 100
COc1ncc(Cn2cnc(CO)n2)cc1-c1cccc(Cl)c1 [Example 336, (1-{[5-(3-Chlorophenyl)-6-methoxypyridin-3-yl]methyl}-1H-1,2,4-triazol-3-yl)methanol] | < 100
COc1ncc(Cc2cnc(CO)cn2)cc1-c1cccc(Cl)c1 [Example 376, (5-{[5-(3-Chlorophenyl)-6-methoxypyridin-3-yl]methyl}pyrazin-2-yl)methanol] | < 100
COc1ncc(Cn2nnnc2CCO)cc1-c1cccc(Cl)c1 [Example 295, 2-(1-((5-(3-Chlorophenyl)-6-methoxypyridin-3-yl)methyl)-1H-tetrazol-5-yl)ethanol] | 1000 to 10000
COc1ncc(Cc2ccc(CC(N)=O)cc2)cc1-c1ccc(F)cc1 [Example 364, 2-(4-{[5-(4-Fluorophenyl)-6-methoxypyridin-3-yl]methyl}phenyl)acetamide] | < 100
CCOc1cc(-c2cc(Cc3cnc(CO)c(F)c3)cnc2OCC(F)F)ccn1 [Example 404, (5-{[6-(2,2-Difluoroethoxy)-5-(2-ethoxypyridin-4-yl)pyridin-3-yl]methyl}-3-fluoropyridin-2-yl)methanol] | < 100
